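Cells were grown in 96-well plates and exposed to each compound for 48 hours at five concentrations; endpoints were interpolated linearly between bracketing concentrations, or set to the highest concentration if not reached. Definition used: TGI = concentration required for complete inhibition of growth.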

Some test systems named below: A498 renal; CCRF-CEM leukemia; MDA-N; MOLT-4 leukemia; NCI-H522 lung; NCI/ADR-RES ovarian; OVCAR-3 ovarian; RPMI-8226 leukemia; SK-OV-3 ovarian; SNB-75 CNS; UO-31 renal.
Holding throughout (assay): DTP human tumour cell line panel, 48 h

Broadly, the TGI is the concentration at which net growth stops. A higher TGI goes with less potent growth arrest. Turning to `COc1ccc(-c2cc(-c3ccc(Nc4ccnc5cc(C(F)(F)F)ccc45)cc3)[nH]c(=O)c2C#N)c2ccccc12`, the TGI in the experiment with A498 renal is over 58.4 µM; in the experiment on CCRF-CEM leukemia, over 56.8 µM; with MDA-N it was over 52.9 µM; in the experiment with MOLT-4 leukemia, over 100 µM; in the experiment with NCI-H522 lung, over 100 µM; with NCI/ADR-RES ovarian it was over 100 µM. Also, the TGI was over 100 µM with OVCAR-3 ovarian; over 100 µM in the experiment with RPMI-8226 leukemia; over 100 µM in the experiment with SK-OV-3 ovarian; 29.9 µM in the experiment on SNB-75 CNS; over 65.9 µM with UO-31 renal.
In the case of `N#Cc1c(=O)c2cc([N+](=O)[O-])ccc2n2c1[nH]c1ccccc12`, the concentration for total growth inhibition (TGI) is over 93.1 µM with A498 renal; over 100 µM in the experiment on CCRF-CEM leukemia; over 77.4 µM with MDA-N; over 76.1 µM in the experiment with MOLT-4 leukemia; 5.75 µM with NCI-H522 lung; over 56.4 µM in the experiment with NCI/ADR-RES ovarian. Besides, the TGI in the experiment with OVCAR-3 ovarian was over 55.7 µM; in the experiment on RPMI-8226 leukemia it was over 100 µM; with SK-OV-3 ovarian, over 100 µM; in the experiment with SNB-75 CNS, over 100 µM; with UO-31 renal, over 57.4 µM.
`N=c1c2c3n(c4c(=O)n(-c5ccccc5)c(=S)n(c(=O)n1-c1ccccc1)c24)CCCCC3`: the TGI in the experiment on A498 renal is over 100 µM; in the experiment on CCRF-CEM leukemia, over 100 µM; in the experiment with MDA-N, over 100 µM; in the experiment with MOLT-4 leukemia, over 71.6 µM; in the experiment on NCI-H522 lung it was over 100 µM; in the experiment with NCI/ADR-RES ovarian, over 100 µM. For the same compound, the TGI in the experiment with OVCAR-3 ovarian, in the experiment on RPMI-8226 leukemia, in the experiment on SK-OV-3 ovarian, in the experiment with SNB-75 CNS and in the experiment on UO-31 renal was over 100 µM throughout.
Take `c1ccc2nc3[nH]c4ccccc4c3cc2c1`: the TGI is 43.1 µM in the experiment on A498 renal; over 100 µM with CCRF-CEM leukemia; 2 µM with MDA-N; 1.36 µM in the experiment with MOLT-4 leukemia; 1.52 µM in the experiment on NCI-H522 lung; 8.28 µM in the experiment with NCI/ADR-RES ovarian. Also, the TGI came out at 2.53 µM in the experiment with RPMI-8226 leukemia, 79.9 µM in the experiment with SK-OV-3 ovarian, 6.44 µM with SNB-75 CNS and 13.1 µM with UO-31 renal.
As for `C=CC1OC(CCCOC(=O)C(C)(C)C)O[C@@H]1CC` (stereo partly drawn), the TGI in the experiment with A498 renal, with CCRF-CEM leukemia, in the experiment on MDA-N, in the experiment with MOLT-4 leukemia, in the experiment on NCI-H522 lung and in the experiment with NCI/ADR-RES ovarian was over 100 µM in each case. The TGI with OVCAR-3 ovarian, in the experiment with RPMI-8226 leukemia, in the experiment on SK-OV-3 ovarian, in the experiment with SNB-75 CNS and with UO-31 renal was over 100 µM in each case.
Take `O=C1CC(Br)c2c(Cl)sc(Cl)c21` (stereo not drawn): the total growth inhibition concentration (TGI) in the experiment on A498 renal was 38.4 µM; with CCRF-CEM leukemia, 2.15 µM; in the experiment with MDA-N, 12.2 µM; in the experiment on MOLT-4 leukemia, 5.54 µM; in the experiment with NCI-H522 lung it was 37.3 µM; in the experiment with NCI/ADR-RES ovarian it was 90.1 µM. For the same compound, the total growth inhibition concentration (TGI) amounted to 6.32 µM in the experiment on OVCAR-3 ovarian; 6.45 µM in the experiment on RPMI-8226 leukemia; 30.4 µM in the experiment with SK-OV-3 ovarian; 30.5 µM in the experiment with SNB-75 CNS; 15.7 µM in the experiment with UO-31 renal.
`O=C1Oc2ccccc2C(=O)/C1=C/N1C(=O)/C(=C/c2ccc([N+](=O)[O-])cc2)SC1=S`: the TGI with A498 renal was 27.6 µM; in the experiment on CCRF-CEM leukemia, over 100 µM; in the experiment on MDA-N, 46.7 µM; in the experiment on MOLT-4 leukemia, over 100 µM; in the experiment on NCI-H522 lung it was 70.1 µM; in the experiment on NCI/ADR-RES ovarian, 95.7 µM. For the same compound, the TGI is 5.85 µM in the experiment on OVCAR-3 ovarian, 42.1 µM in the experiment with RPMI-8226 leukemia, 89.5 µM in the experiment on SK-OV-3 ovarian and 54.3 µM in the experiment with SNB-75 CNS.
In the case of `CO/N=C1\CCC2(O)C3Cc4ccc(O)c5c4C2(CCN3CC2CC2)[C@H]1O5` (stereo partly drawn), the TGI in the experiment on A498 renal, in the experiment on CCRF-CEM leukemia, with MDA-N, in the experiment on MOLT-4 leukemia, in the experiment with NCI-H522 lung and in the experiment on NCI/ADR-RES ovarian was over 100 µM in each case. Besides, the total growth inhibition concentration (TGI) in the experiment with OVCAR-3 ovarian, with RPMI-8226 leukemia, in the experiment with SK-OV-3 ovarian and in the experiment with UO-31 renal was over 100 µM each time.
Turning to `C[n+]1c2ccccc2c(CNC(CCC(N)=O)C(=O)O)c2ccccc21` (stereo not drawn), the TGI in the experiment with A498 renal came to 6.93 µM; in the experiment on CCRF-CEM leukemia, 3.29 µM; in the experiment on MDA-N it was 10.5 µM; in the experiment with MOLT-4 leukemia, 10 µM; with NCI-H522 lung, 3.18 µM; in the experiment with NCI/ADR-RES ovarian, 14 µM. The TGI in the experiment with OVCAR-3 ovarian amounted to 6.78 µM; in the experiment on RPMI-8226 leukemia it was 2.54 µM; with SK-OV-3 ovarian it was 19.7 µM; with SNB-75 CNS, 12.5 µM; in the experiment with UO-31 renal it was 10.3 µM.
Regarding `Cn1c(N2CCCC2)c(C=O)c(=O)n(C)c1=O`, the TGI in the experiment on A498 renal, in the experiment on CCRF-CEM leukemia, in the experiment on MDA-N, in the experiment with MOLT-4 leukemia, with NCI-H522 lung and in the experiment with NCI/ADR-RES ovarian was over 100 µM in each case. Moreover, the total growth inhibition concentration (TGI) in the experiment with OVCAR-3 ovarian was over 100 µM; with RPMI-8226 leukemia, over 100 µM; in the experiment on SK-OV-3 ovarian, over 100 µM; with SNB-75 CNS, 93 µM; with UO-31 renal, over 100 µM.
In the case of `CCOC(=O)CCC(C(=O)OCC)n1nc2ccc(Nc3c(C)[n+]([O-])c4cc(Cl)ccc4[n+]3[O-])cc2n1` (stereo not drawn), the TGI in the experiment with A498 renal, in the experiment on CCRF-CEM leukemia, in the experiment on MDA-N, in the experiment on MOLT-4 leukemia, in the experiment on NCI-H522 lung and with NCI/ADR-RES ovarian was over 100 µM each time. Also, the TGI in the experiment on OVCAR-3 ovarian, in the experiment with RPMI-8226 leukemia, with SK-OV-3 ovarian, in the experiment with SNB-75 CNS and with UO-31 renal was over 100 µM throughout.
Consider `CC(C)(C)c1cc(-c2ccc(-c3cc(C(C)(C)C)c(O)c(C(C)(C)C)c3)cc2)cc(C(C)(C)C)c1O`, for which the TGI in the experiment on A498 renal, with MDA-N, in the experiment with MOLT-4 leukemia, with NCI-H522 lung, in the experiment on NCI/ADR-RES ovarian and in the experiment with OVCAR-3 ovarian was over 100 µM each time. Also, the TGI with RPMI-8226 leukemia, with SK-OV-3 ovarian, with SNB-75 CNS and in the experiment with UO-31 renal was over 100 µM each time.

The record behind these values is PubChem BioAssay (NCI).
